Experiment [1] deals with C-terminal Domain (CTD) of human STING. As to conditions: 500 pM STING, 100 nM Alexa488 probe, 15 min at room temperature.
The subject of experiment [2] is T1, Full-length human STING.
T1 construct: Full-length human STING (Gene ID 340061); expressed in transfected cells; host or cells: HEK293T
It counts as cell-based. Here is the method: Functional Assay III (HEX WT agonist assay): Activation of STING in cells may be determined using a luciferase reporter assay in human embryonic kidney cells (HEK293T) co-transfected with plasmids expressing STING and the enzyme firefly luciferase driven by the interferon stimulated response element promoter (pISRE-Luc) (Agilent Technologies). […] Transfections were prepared using a cell suspension with Fugene® 6 following the manufacturer's instructions (3:1 Fugene®:DNA). […] of the transfection suspension was dispensed into wells of a 384-well plate containing 250 nL of a compound of Formula (I). […] Control wells expected to generate maximal activation of STING were cotransfected with a cGAS expression plasmid. Plates were sealed and incubated for 24 hours at 37° C. The expression of firefly luciferase was processed using Steady-Glo® luciferase assay system (Promega) and was analyzed using a standard laboratory luminescence plate reader. Data was normalized to luminescence response in the presence of cGAS, was plotted as a function of compound concentration, and fit using a standard model of receptor activation to derive the pEC50.

Setting [3] is: HEK293T co-transfected with STING and pISRE-Luc, 24 hours at 37° C., normalized to cGAS response.

Here are results for 16 compounds from US10975287B2, “Heterocyclic amides useful as protein modulators” (GlaxoSmithKline Intellectual Property Development Limited, priority 2017, dated 2021).

Like-named read-outs stand apart in the source and are kept apart here.

With `CCn1nc(C)cc1C(=O)Nc1nc2cc(C(N)=O)ccc2n1C` [Example 1, 2-(1-ethyl-3-methyl-1H-pyrazole-5-carboxamido)-1-methyl-1H-benzo[d]imidazole-5-carboxamide], in experiment [1], the “FRET assay (pIC50)” value is recorded as 4.4. Moreover, the “HEK assay (pEC50)” value in experiment [2] (setting [3]) was 4.4.

Take `C=CCn1c(NC(=O)c2cc(C)nn2CC)nc2cc(C(N)=O)ccc21` [Example 2, 1-allyl-2-(1-ethyl-3-methyl-1H-pyrazole-5-carboxamido)-1H-benzo[d]imidazole-5-carboxamide]: the “FRET assay (pIC50)” value in experiment [1] worked out at 4.6. Further, the “HEK assay (pEC50)” value in experiment [2] (setting [3]) is 4.5.

Regarding `CCCn1c(NC(=O)c2cc(C)nn2CC)nc2cc(C(N)=O)cc(OC)c21` [Example 3, 2-(1-ethyl-3-methyl-1H-pyrazole-5-carboxamido)-7-methoxy-1-propyl-1H-benzo[d]imidazole-5-carboxamide], the “FRET assay (pIC50)” value in experiment [1] came out at 5.5. Besides, in experiment [2] (setting [3]), the “HEK assay (pEC50)” value came to 6.

As to `C=CCn1c(NC(=O)c2cc(C)nn2CC)nc2cc(C(N)=O)cc(OCCCO)c21` [Example 4, 1-Allyl-2-(1-ethyl-3-methyl-1H-pyrazole-5-carboxamido)-7-(3-hydroxypropoxy)-1H-benzoylimidazole-5-carboxamide], the “FRET assay (pIC50)” value in experiment [1] was 4.9. In experiment [2] (setting [3]), the “HEK assay (pEC50)” value is 4.5.

As to `CCn1nc(C)cc1C(=O)Nc1nc2cc(C(N)=O)cc(OC)c2n1CCCN1CCOCC1` [Example 9, 2-(1-ethyl-3-methyl-1H-pyrazole-5-carboxamido)-7-methoxy-1-(3-morpholinopropyl)-1H-benzo[d]imidazole-5-carboxamide], the “FRET assay (pIC50)” value in experiment [1] came to 5.1. Moreover, the “HEK assay (pEC50)” value in experiment [2] (setting [3]) stood at 5.1.

Consider `CCCn1c(NC(=O)c2cc(C)nn2CC)nc2cc(C(N)=O)cc(OCCCO)c21` [Example 13, 2-(1-ethyl-3-methyl-1H-pyrazole-5-carboxamido)-7-(3-hydroxypropoxy)-1-propyl-1H-benzo-[d]imidazole-5-carboxamide], for which, in experiment [2] (setting [3]), the “HEK assay (pEC50)” value is recorded as 5.4.

Regarding `C=CCn1c(NC(=O)c2cc(C)nn2CC)nc2cc(C(N)=O)cc(OC)c21` [Example 14, 1-allyl-2-(1-ethyl-3-methyl-1H-pyrazole-5-carboxamido)-7-methoxy-1H-benzo[d]imidazole-5-carboxamide], the “FRET assay (pIC50)” value in experiment [1] is recorded as less than 3.9. Moreover, the “HEK assay (pEC50)” value in experiment [2] (setting [3]) was 5.6.

`CCn1nc(C)cc1C(=O)Nc1nc2cc(C(N)=O)cc(OC)c2n1CCCCNC(=O)OC(C)(C)C` [Example 17, tert-butyl (4-(5-carbamoyl-2-(1-ethyl-3-methyl-1H-pyrazole-5-carboxamido)-7-methoxy-1H-benzo[d]imidazol-1-yl)butyl)carbamate]: the “HEK assay (pEC50)” value in experiment [2] (setting [3]) was found to be 6.1.

`CCCCn1c(NC(=O)c2cc(C)nn2CC)nc2cc(C(N)=O)cc(OC)c21` [Example 24, 1-butyl-2-(1-ethyl-3-methyl-1H-pyrazole-5-carboxamido)-7-methoxy-1H-benzo[d]imidazole-5-carboxamide]: the “HEK assay (pEC50)” value in experiment [2] (setting [3]) came out at 6.0.

Take `CCn1nc(C)cc1C(=O)Nc1nc2cc(C(N)=O)cc(OC)c2n1CCC(C)C` [Example 27, (1-ethyl-3-methyl-1H-pyrazole-5-carboxamido)-1-isopentyl-7-methoxy-1H-benzo[d]imidazole-5-carboxamide]: the “HEK assay (pEC50)” value in experiment [2] (setting [3]) was 5.5.

In the case of `CCCn1c(NC(=O)c2cc(C)nn2CC)nc2c(OC)c(C(N)=O)ccc21` [Example 30, 2-(1-ethyl-3-methyl-1H-pyrazole-5-carboxamido)-4-methoxy-1-propyl-1H-benzo[d]imidazole-5-carboxamide], the “FRET assay (pIC50)” value in experiment [1] worked out at 5.0.

On to `CCn1nc(C)cc1C(=O)Nc1nc2cc(C(N)=O)cc(OC(C)C)c2n1CCCN1CCOCC1` [Example 37, 2-(1-ethyl-3-methyl-1H-pyrazole-5-carboxamido)-7-isopropoxy-1-(3-morpholinopropyl)-1H-benzo[d]imidazole-5-carboxamide], for which the “FRET assay (pIC50)” value in experiment [1] came out at 5.5.

Take `CCCn1c(NC(=O)c2cc(C)nn2CC)nc2cc(C(N)=O)cc(CN3CCOCC3)c21` [Example 41, 2-(1-ethyl-3-methyl-1H-pyrazole-5-carboxamido)-7-(morpholinomethyl)-1-propyl-1H-benzoylimidazole-5-carboxamide]: the “FRET assay (pIC50)” value in experiment [1] came to 5.4.

`CCn1nc(C)cc1C(=O)Nc1nc2cc(C(N)=O)cc(OC)c2n1CCCc1cccnc1` [Example 50, 2-(1-ethyl-3-methyl-1H-pyrazole-5-carboxamido)-7-methoxy-1-(3-(pyridin-3-yl)propyl)-1H-benzoylimidazole-5-carboxamide]: in experiment [1], the “FRET assay (pIC50)” value is listed as 5.3.

Consider `CCn1nc(C)cc1C(=O)Nc1nc2cc(C(N)=O)cc(OC)c2n1CCCNC(=O)OCc1ccccc1` [Example 53, benzyl (3-(5-carbamoyl-2-(1-ethyl-3-methyl-1H-pyrazole-5-carboxamido)-7-methoxy-1H-benzo[d]imidazol-1-yl)propyl)carbamate], for which the “HEK assay (pEC50)” value in experiment [2] amounted to 6.2.

Turning to `CCCn1c(NC(=O)c2cc(CC)nn2CC)nc2cc(C(N)=O)cc(OC)c21` [Example 57, 2-(1,3-diethyl-1H-pyrazole-5-carboxamido)-7-methoxy-1-propyl-1H-benzo[d]imidazole-5-carboxamide], the “HEK assay (pEC50)” value in experiment [2] (setting [3]) is 5.5.
